Values after ≈ are worked out from the molar mass of the structure shown. Values joined by “and” are separate entries in the source; they are usually repeats but may differ in a detail not shown here. Equal entries are not always repeated. Where two headings read alike, the source gives them in different places. Where a SMILES comes first, the peptide text is derived from it. The star is where a group is joined. Octanoyl = CCCCCCCC(=O)*; X1 = CCCCCCC(CCCC)C(=O)*; PhAc = O=C(Cc1ccccc1)*
How the values were obtained:
[1] = system: human red blood cells (hRBCs); assay: Hemolysis assay; conditions: 4% (v/v) erythrocytes in PBS, peptides 1–512 µg/mL, 1 h at 37 °C, hemoglobin at 540 nm
Protocol: To facilitate a comparison of hemolytic activity between the analogs, MHC5 values were determined. MHC5 is the minimum hemolytic concentration of the compounds that caused the 5% hemolysis of hRBCs.
Briefly, the fresh hRBCs with EDTA as anticoagulant were rinsed three times with PBS through centrifugation at 800× g for 10 min and resuspended in PBS. The serial dilution of peptides (1–512 µg/mL) was prepared in PBS on 96-well plates. Then, the stock RBCs solution was added to the plates to reach a final volume of 100 µL with a 4% concentration of erythrocytes (v/v). The control wells for 0 (RBCs in PBS) and 100% (RBCs in 1% Triton-X 100) hemolysis were also prepared. Then, the plates were incubated for 1 h at 37 °C and centrifuged at 800× g for 10 min at 4 °C (Sorvall ST 16R Centrifuge, Thermo Scientific, Waltham, MA, USA). After centrifugation, the supernatant was carefully transferred to new microtiter plates and the release of hemoglobin was measured at 540 nm (Multiskan™ GO Microplate Spectrophotometer, Thermo Scientific, Waltham, MA, USA). The percentage of hemolysis was calculated based on wells with 100% hemolysis.

S. aureus ATCC 25923 = type: cell-based, Staphylococcus aureus
Protocol: (§1) Tests of the antibacterial activity were carried out as we just described. Briefly, for assays, the following strains of ESKAPE bacteria were chosen: Acinetobacter baumannii ATCC BAA-1605, Enterococcus faecium ATCC 700221, Klebsiella aerogenes ATCC 13048 (formerly Enterobacter aerogenes), Klebsiella pneumoniae ATCC 700603, and Pseudomonas aeruginosa ATCC 9027. Moreover, the reference strains of Staphylococcus aureus were used: S. aureus ATCC 25923, S. aureus ATCC 6538, S. aureus ATCC 33591 (MRSA), S. aureus ATCC 9144, and S. aureus ATCC 12598. Before experiments, all the strains were stored at −80 °C in Roti®-Store cryo vials (Carl Roth GmbH, Karlsruhe, Germany). To evaluate the activity of the compounds, bacteria were transferred into fresh Mueller–Hinton medium (Becton Dickinson, Warszawa, Poland) and incubated for 24 h at 37 °C. In the next step, bacterial inoculums were seeded on Mueller–Hinton agar plates (BioMaxima SA, Lublin, Poland) and incubated again for 24 h. The MIC values were determined using the broth microdilution method according to the Clinical and Laboratory Standards Institute Protocol. The initial inoculums of bacteria (0.5 × 10^5 colony forming units (CFU)/mL) prepared in Mueller–Hinton broth were exposed to the ranging concentrations of peptides (1–512 µg/mL). The experiments were conducted on 96-well microtiter plates, with a final volume of 100 µL. The inoculum densities were checked spectrophotometrically (Multiskan™ GO Microplate Spectrophotometer, Thermo Scientific, Waltham, MA, USA) at 600 nm. The results were read after incubation for 18 h at 37 °C. The MIC values were the lowest concentration at which a visible growth of microorganisms was inhibited. All experiments were conducted in triplicate. Moreover, positive (growth) and negative (sterility) controls were included.

S. aureus ATCC 12598 = type: cell-based, Staphylococcus aureus
Protocol: as §1

S. aureus ATCC 9144 = type: cell-based, Staphylococcus aureus
Protocol: as §1

[2] = system: S. aureus ATCC 33591 (MRSA); type: cell-based, Staphylococcus aureus
Protocol: as §1

S. aureus ATCC 6538 = type: cell-based, Staphylococcus aureus
Protocol: as §1

[3] = system: Klebsiella aerogenes ATCC 13048; type: cell-based
Protocol: as §1

[4] = system: Klebsiella pneumoniae ATCC 700603; type: cell-based
Protocol: as §1

[5] = system: Enterococcus faecium ATCC 700221; type: cell-based
Protocol: as §1

[6] = system: Pseudomonas aeruginosa ATCC 9027; type: cell-based
Protocol: as §1

[7] = 100% = 1% Triton-X 100, ≥ means less than 5% hemolysis up to 512 µg/mL
[8] = Mueller–Hinton broth, 0.5 × 10^5 CFU/mL, peptides 1–512 µg/mL, 18 h at 37 °C, triplicate

MIC A. baumannii (18 h)	MIC S. aureus 25923 (S. aureus ATCC 25923; ATCC 25923, 18 h)	MIC S. aureus 12598 (S. aureus ATCC 12598; ATCC 12598, 18 h)	MIC S. aureus 9144 (S. aureus ATCC 9144; ATCC 9144, 18 h)	MIC S. aureus 33591 ([2]; ATCC 33591, 18 h)	MIC S. aureus 6538 (S. aureus ATCC 6538; ATCC 6538, 18 h)	MIC K. aerogenes ([3]; ATCC 13048, 18 h)	MIC K. pneumoniae ([4]; ATCC 700603, 18 h)	MIC E. faecium ([5]; ATCC 700221, 18 h)	MIC P. aeruginosa ([6]; ATCC 9027, 18 h)	Structure (SMILES)	MHC5 (minimum hemolytic concentration causing 5% hemolysis of hRBCs) [1, 7]	also measured
64 µg/mL (≈ 37.7 µM)	32 µg/mL (≈ 18.9 µM)	32 µg/mL (≈ 18.9 µM)	32 µg/mL (≈ 18.9 µM)	32 µg/mL (≈ 18.9 µM)	8 µg/mL (≈ 4.71 µM)	256 µg/mL (≈ 151 µM)	128 µg/mL (≈ 75.4 µM)	8 µg/mL (≈ 4.71 µM)	64 µg/mL (≈ 37.7 µM)	CCCCCCCC(=O)N[C@@H](CCCNC(=N)N)C(=O)N[C@@H](CC(C)C)C(=O)N[C@@H](Cc1ccccc1)C(=O)N[C@@H](CC(=O)O)C(=O)N[C@@H](CCCCN)C(=O)N[C@H](C(=O)N[C@@H](CCCNC(=N)N)C(=O)N[C@@H](CCC(N)=O)C(=O)N[C@H](C(=O)N[C@H](C(=O)N[C@@H](CCCNC(=N)N)C(=O)N[C@@H](CCCCN)C(N)=O)[C@@H](C)CC)C(C)C)[C@@H](C)CC [XII, C8^α-retro-KR12-NH2] (Octanoyl-RLFDKIRQVIRK-NH2)	≥512 µg/mL	
8 µg/mL (≈ 4.38 µM)	128 µg/mL (≈ 70.1 µM)	32 µg/mL (≈ 17.5 µM)	16 µg/mL (≈ 8.77 µM)	64 µg/mL (≈ 35.1 µM)	8 µg/mL (≈ 4.38 µM)	32 µg/mL (≈ 17.5 µM)	16 µg/mL (≈ 8.77 µM)	4 µg/mL (≈ 2.19 µM)	32 µg/mL (≈ 17.5 µM)	CCCCCCCC(=O)N[C@@H](CCCCN)C(=O)N[C@@H](CCCCN)C(=O)N[C@@H](CCCNC(=N)N)C(=O)N[C@H](C(=O)N[C@H](C(=O)N[C@@H](CCC(N)=O)C(=O)N[C@@H](CCCNC(=N)N)C(=O)N[C@H](C(=O)N[C@@H](CCCCN)C(=O)N[C@@H](CC(=O)O)C(=O)N[C@@H](Cc1ccccc1)C(=O)N[C@@H](CC(C)C)C(=O)N[C@@H](CCCNC(=N)N)C(N)=O)[C@@H](C)CC)C(C)C)[C@@H](C)CC [IV, C8^α-Lys-KR12-NH2] (Octanoyl-KKRIVQRIKDFLR-NH2)	256 µg/mL	
4 µg/mL (≈ 2.28 µM)	8 µg/mL (≈ 4.56 µM)	4 µg/mL (≈ 2.28 µM)	2 µg/mL (≈ 1.14 µM)	4 µg/mL (≈ 2.28 µM)	32 µg/mL (≈ 18.3 µM)	8 µg/mL (≈ 4.56 µM)	8 µg/mL (≈ 4.56 µM)	2 µg/mL (≈ 1.14 µM)	32 µg/mL (≈ 18.3 µM)	CCCCCCC(CCCC)C(=O)N[C@@H](CCCCN)C(=O)N[C@@H](CCCNC(=N)N)C(=O)N[C@H](C(=O)N[C@H](C(=O)N[C@@H](CCC(N)=O)C(=O)N[C@@H](CCCNC(=N)N)C(=O)N[C@H](C(=O)N[C@@H](CCCCN)C(=O)N[C@@H](CC(=O)O)C(=O)N[C@@H](Cc1ccccc1)C(=O)N[C@@H](CC(C)C)C(=O)N[C@@H](CCCNC(=N)N)C(N)=O)[C@@H](C)CC)C(C)C)[C@@H](C)CC (stereo partly shown) [XIII, 2-Buthyloctanoic acid-KR12-NH2] (X1-KRIVQRIKDFLR-NH2)		MHC5 (minimum hemolytic concentration causing 5% hemolysis of hRBCs) ([1]; fresh batch of blood (footnote a)): 8 µg/mL and 16 ^a µg/mL
										CC[C@H](C)[C@H](NC(=O)[C@H](CCCNC(=N)N)NC(=O)[C@H](CCC(N)=O)NC(=O)[C@@H](NC(=O)[C@@H](NC(=O)[C@H](CCCNC(=N)N)NC(=O)[C@H](CCCCN)NC(=O)Cc1ccccc1)[C@@H](C)CC)C(C)C)C(=O)N[C@@H](CCCCN)C(=O)N[C@@H](CC(=O)O)C(=O)N[C@@H](Cc1ccccc1)C(=O)N[C@@H](CC(C)C)C(=O)N[C@@H](CCCNC(=N)N)C(N)=O [XVI, Phenylacetic acid-KR12-NH2] (PhAc-KRIVQRIKDFLR-NH2)	256 µg/mL	MIC A. baumannii [8]: 32 µg/mL (≈ 18.9 µM); MIC S. aureus 25923 (S. aureus ATCC 25923; [8]): 128 µg/mL (≈ 75.8 µM); MIC S. aureus 12598 (S. aureus ATCC 12598; [8]): 32 µg/mL (≈ 18.9 µM); MIC S. aureus 9144 (S. aureus ATCC 9144; [8]): 32 µg/mL (≈ 18.9 µM); MIC S. aureus 33591 ([2]; MRSA, Mueller–Hinton broth, 0.5 × 10^5 CFU/mL, peptides 1–512 µg/mL, 18 h at 37 °C, triplicate): 64 µg/mL (≈ 37.9 µM); MIC S. aureus 6538 (S. aureus ATCC 6538; [8]): 16 µg/mL (≈ 9.47 µM); MIC K. aerogenes [3, 8]: 64 µg/mL (≈ 37.9 µM); MIC K. pneumoniae [4, 8]: 64 µg/mL (≈ 37.9 µM); MIC E. faecium [5, 8]: 8 µg/mL (≈ 4.74 µM); MIC P. aeruginosa [6, 8]: 128 µg/mL (≈ 75.8 µM)
32 µg/mL (≈ 17.5 µM)	64 µg/mL (≈ 35.1 µM)	32 µg/mL (≈ 17.5 µM)	32 µg/mL (≈ 17.5 µM)	64 µg/mL (≈ 35.1 µM)	8 µg/mL (≈ 4.38 µM)	64 µg/mL (≈ 35.1 µM)	16 µg/mL (≈ 8.77 µM)	4 µg/mL (≈ 2.19 µM)	16 µg/mL (≈ 8.77 µM)	CCCCCCCC(=O)NCCCC[C@H](N)C(=O)N[C@@H](CCCCN)C(=O)N[C@@H](CCCNC(=N)N)C(=O)N[C@H](C(=O)N[C@H](C(=O)N[C@@H](CCC(N)=O)C(=O)N[C@@H](CCCNC(=N)N)C(=O)N[C@H](C(=O)N[C@@H](CCCCN)C(=O)N[C@@H](CC(=O)O)C(=O)N[C@@H](Cc1ccccc1)C(=O)N[C@@H](CC(C)C)C(=O)N[C@@H](CCCNC(=N)N)C(N)=O)[C@@H](C)CC)C(C)C)[C@@H](C)CC [V, C8^ε-Lys-KR12-NH2] (H-K(Octanoyl)KRIVQRIKDFLR-NH2)	256 µg/mL	

From paper PMC10053710, “Influence of Lipidation Pattern of the KR12 Fragment of Peptide LL-37 on Its Antibacterial and Hemolytic Activities” (International Journal of Molecular Sciences, 2023)
